In PMC9072872, “Structure-based design of nucleoside-derived analogues as sulfotransferase inhibitors” (RSC Advances, 2019):

Key:
[1] = target: T1, TPST1 (Homo sapiens, UniProt O60507); assay: Immunoblot of GST-CC4tide tyrosine sulfation by TPST1 (anti-sulfotyrosine antibody); format: biochemical; details: compound 400 μM, GST-CC4-tide 1 μg, TPST1 0.2 μg, PAPS 5 μM, 15 min
T1 construct: Human TPST1 (residues Lys43-Leu360) enzyme was purified as a recombinant protein; made in house
T1 sequence (O60507 43-360): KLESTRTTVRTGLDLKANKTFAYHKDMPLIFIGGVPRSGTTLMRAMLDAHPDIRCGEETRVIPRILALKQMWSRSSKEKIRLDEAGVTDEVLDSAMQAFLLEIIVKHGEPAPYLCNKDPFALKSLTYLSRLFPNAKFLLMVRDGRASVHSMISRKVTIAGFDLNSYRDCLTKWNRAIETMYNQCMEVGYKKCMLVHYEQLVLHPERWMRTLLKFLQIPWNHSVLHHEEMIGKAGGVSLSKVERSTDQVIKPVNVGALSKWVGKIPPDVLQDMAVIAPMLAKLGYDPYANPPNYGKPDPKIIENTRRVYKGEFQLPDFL
Protocol: In order to further assess TPST1 inhibition by 2′-deoxy-PAP and compounds 1–14 using a complementary assay, immunoblotting of a TPST1 protein substrate (GST-CC4tide) was implemented with a monoclonal antibody that specifically recognises sulfotyrosine, using PAP as positive control (Fig. 5A). Compounds were screened at 400 μM in the assay. In common with the […] enzyme assay using a synthetic peptide, a broad range of inhibitory activities was observed.
Fig. 5 Immunological evaluation of TPST1 inhibition towards substrate and a Ser/Thr protein kinase counter-screen. (A) Immunoblots evaluating TPST1 sulfotransferase activity in the presence of a panel of PAP- and PAPS-mimetic compounds. […] After termination of the reaction using SDS-PAGE sample buffer, tyrosine sulfation was visualised by immunoblotting using a monoclonal sulfotyrosine antibody (top panel), with equal GST-CC4-tide and TPST1 loading confirmed using an antibody to detect 6xHis tagged proteins (bottom panel). (B) Enzymatic inhibition of PKA catalytic activity by a panel of PAP- and PAPS-mimetic compounds. PKA kinase (1 nM) was incubated with ATP (5 μM) in the presence of the appropriate nucleoside analogue (400 μM) for 30 min at 20 °C. PKA activity was calculated in real-time using fluorescently-labelled substrate peptide (2 μM) and normalised to DMSO (4% v/v) or buffer control.[77] Data in B is mean and SD of 3 individual experiments. Staurosporine is included at 40 μM as a generic inhibitor of kinase activity. […]
All standard laboratory biochemicals, were purchased from Sigma, and were of the highest analytical quality.
(§1) 5'-phosphosulfate, lithium salt hydrate, PAP (adenosine 3',5'-diphosphate, disodium salt), CoA (coenzymeA, sodium salt), ATP (adenosine 5’-triphosphate, disodium salt hydrate) were all purchased from Sigma and stored at -80 °C to minimise degradation.
(§2) Recombinant Protein Production and SDS-PAGE
(§3) Human TPST1 (residues Lys43-Leu360) enzyme was purified as a recombinant protein containing an N-terminal 6xHis tag as previously described. […]
pMAL-c2x plasmid encoding an N-terminal Maltose Binding Protein (MBP) affinity tag.6 Glutathione-S-transferase (GST) tagged CC4-tide ([…]) was cloned into pOPINJ (OPPF-UK) and […]
affinity purified from BL21 (DE3) pLysS E. coli using Glutathione-Sepharose 4B (GE Healthcare). 5 For SDS-PAGE, proteins were denatured in Laemmli sample buffer, heated at 95 °C for 5 min and then analysed by SDS-PAGE with 10% (v/v) polyacrylamide gels. Gels were stained and de-stained using a standard Coomassie Brilliant Blue protocol. To evaluate protein sulfation by immunoblotting, standard western blotting procedures were followed using monoclonal anti-sulfotyrosine ant ibody clone o-1C-A2 (Millipore) generated using a phage display procedure and sulfotyrosine selection peptide antigens7 in the presence of appropriate positive and negative controls, and modifications visua lised using ECL […]
Data was normalized […]
with respect to these control assays, with sulfate incorporation into the substr ate limited to ~ 20% to prevent depletion of PAPS and to ensure assay linearity. K m and IC50 values were determined by non-linear regression analysis with GraphPad Prism software. […]

[2] = target: T1, TPST1; assay: Microfluidic mobility shift sulfation assay, TPST1 (fluorescent CC4-tide substrate); format: biochemical; details: for IC50: read-out: IC50 against TPST1
Protocol: (§4) Compounds were initially screened at 400 μM in the presence 20 nM HS2ST and 0.1 μM TPST1 respectively.
Fig. 4 Summary of enzymatic inhibition assays against HS2ST and TPST1. (A) Enzymatic analysis of HS2ST1 inhibition by a panel of PAP- and PAPS-mimetic compounds. […] HS2ST sulfotransferase activity was assayed using a fluorescent hexasaccharide substrate (2 μM) and normalised to DMSO (4% v/v) or buffer control. Data shown is mean and SD of 4 repeat experiments. (B) Full dose–response curves for selected compounds. […] HS2ST activity calculated as previously described. Data from two independent experiments are combined. (C) Enzymatic analysis of TPST1 inhibition by a panel of PAP- and PAPS-mimetic compounds. […] TPST1 activity was measured using fluorescently-labelled CC4-tide (2 μM) and normalised to DMSO (4% v/v) or buffer control. (D) Full dose–response curves for selected compounds. […] TPST1 activity was measured using CC4-tide and normalised to DMSO or buffer controls as previously described. The data shown is from duplicate experiments. […]
TPST1 peptide substrate (CC4-tide, 5-FAM-EDFED YEFDG-CONH2) was synthesised using solid-phase Fmoc chemistry (Pepceuticals, Leicester, UK). All standard laboratory biochemicals, were purchased from Sigma, and were of the highest analytical quality.
as §1, §2, §3
(§5) Microfluidics-Based Sulfation Assay
(§6) Non-radioactive microfluidic mobility shift peptide and carbohydrate sulfation assays were performed in solution with a 12-sipper chip coated with SR8 reagent and a Perkin Elmer EZ Reader II system 8 using an EDTA-based separation buffer and real-time kinetic evaluation of substrate sulfation. Pressure and voltage settings were adjusted manually to afford optimal separation of the sulfated product and non-sulfated substrate, with a sample (sip) volume of 20 nL, and total assay tim es appropriate for the experiment. The fluorophore tagged TPST1 peptide substrate and HS2ST1 glycan substrate where detected by the EZ Reader via LED-induced fluorescence.
(§7) Individual sulfation assays were assembled in a 384 well plate in a volume of 80 µL in the presence of […]
(§8) and 5 mM MgCl2. The degree of substrate sulfation was directly calculated using EZ Reader software by measuring the sulfo-product:non-sulfated substrate ratio at each time-point. The act ivity of the sulfotransferase enzymes in the presence of biochemicals and small molecule inhibitors was quantified in ‘kinetic mode’ by monitoring the amount of sulfated product generated over the assay time, relative to control assay with no additional inhibitor molecule (DMSO or buffer control). Data was normalized with respect to these control assays, with sulfate incorporation into the substr ate limited to ~ 20% to prevent depletion of PAPS and to ensure assay linearity. K m and IC50 values were determined by non-linear regression analysis with GraphPad Prism software. […]

[3] = target: T2, HS2ST (Gallus gallus, UniProt Q76KB1); assay: Microfluidic mobility shift sulfation assay, HS2ST (fluorescent hexasaccharide substrate); format: biochemical, chicken; details: read-out: IC50 against HS2ST
T2 construct: made in house; host or cells: E. coli Rosetta-gami (DE3)
T2 sequence (Q76KB1 1-356): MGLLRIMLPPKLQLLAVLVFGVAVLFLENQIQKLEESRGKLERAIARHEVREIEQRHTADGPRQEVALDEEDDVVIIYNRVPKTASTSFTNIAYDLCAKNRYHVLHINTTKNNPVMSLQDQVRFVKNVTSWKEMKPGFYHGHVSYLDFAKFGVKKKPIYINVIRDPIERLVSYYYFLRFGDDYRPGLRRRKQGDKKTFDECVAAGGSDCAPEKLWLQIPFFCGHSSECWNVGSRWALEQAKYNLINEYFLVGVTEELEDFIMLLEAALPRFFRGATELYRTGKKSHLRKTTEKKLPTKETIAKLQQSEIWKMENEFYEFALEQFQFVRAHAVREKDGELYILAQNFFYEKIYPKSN
Protocol: as §4
Fig. 4 Summary of enzymatic inhibition assays against HS2ST and TPST1. (A) Enzymatic analysis of HS2ST1 inhibition by a panel of PAP- and PAPS-mimetic compounds. […] HS2ST sulfotransferase activity was assayed using a fluorescent hexasaccharide substrate (2 μM) and normalised to DMSO (4% v/v) or buffer control. Data shown is mean and SD of 4 repeat experiments. (B) Full dose–response curves for selected compounds. […] HS2ST activity calculated as previously described. Data from two independent experiments are combined. (C) Enzymatic analysis of TPST1 inhibition by a panel of PAP- and PAPS-mimetic compounds. […] TPST1 activity was measured using fluorescently-labelled CC4-tide (2 μM) and normalised to DMSO (4% v/v) or buffer control. (D) Full dose–response curves for selected compounds. […] TPST1 activity was measured using CC4-tide and normalised to DMSO or buffer controls as previously described. The data shown is from duplicate experiments.
N-sulfated, fluorescein-tagged HS2ST1 hexasaccharide glycan substrate (GlcNS-GlcA- GlcNS-IdoA-GlcNS-GlcA-fluorescein, where S=sulfation) containing L-IdoA at the third residue from the reducing end (to which a linker and the fluorophore were conjugated) was purchased from GLY CAN therapeutics. TPST1 peptide substrate (CC4-tide, 5-FAM-EDFED YEFDG-CONH2) was synthesised using solid-phase Fmoc chemistry (Pepceuticals, Leicester, UK). All standard laboratory biochemicals, were purchased from Sigma, and were of the highest analytical quality.
as §1
Recombinant Protein Production and SDS-PAGE […]
as §5, §6, §7, §8

[4] = system: sulfotransferase; set-up: method as in PMID 29934491, PMID 29934490; details: non nucleoside-derived; cited from earlier work

suppression of tyrosine sulfation (immunoblot) [1]	IC50 [2]	IC50 [3]	Compound	further results
partial suppression	–	–	Nc1ncnc2c1ncn2[C@H]1C[C@H](OCC(=O)NO)[C@@H](COCC(=O)NO)O1 [Compound 3]	–
complete suppression	100 to 300 µM	–	COC(=O)COC1CC(n2cnc3c(N)ncnc32)OC1COP(=O)(O)O (stereo not drawn) [Compound 5]	–
complete suppression	100 to 300 µM	–	COC(=O)COC1CC(n2cnc3c(N)ncnc32)OC1COP(=O)(O)OCc1ccccc1 (stereo not drawn) [Compound 6]	–
did not show any activity	–	–	Nc1ncnc2c1ncn2[C@H]1C[C@H](O)[C@@H](Cn2cc(C(=O)O)nn2)O1 [Compound 7]	inhibitory activity against TPST1 ([2]; compound 400 μM, TPST1 0.1 μM, PAPS 5 μM): showed activity
partial suppression	–	100 to 300 µM	Nc1ncnc2c1ncn2[C@H]1C[C@H](OP(=O)(O)O)[C@@H](Cn2cc(C(=O)O)nn2)O1 [Compound 8]	–
partial suppression	–	100 to 300 µM	Nc1ncnc2c1ncn2[C@H]1C[C@H](O)[C@@H](Cn2cc(C(=O)OCc3ccccc3)nn2)O1 [Compound 9]	–
–	1.5 µM	2 µM	Nc1ncnc2c1ncn2[C@@H]1O[C@H](COP(=O)(O)O)[C@@H](OP(=O)(O)O)[C@H]1O [PAP, adenosine 3′,5′-diphosphate, reference compound]	–
–	–	–	CC(=O)c1c(O)c(C)c(O)c(Cc2c(O)c3c(c(C(=O)/C=C/c4ccccc4)c2O)OC(C)(C)C=C3)c1O [rottlerin]	sulfotransferase inhibitor potency [4]: low/sub-micromolar
–	–	–	Cc1ccc(C(=O)Nc2ccc(S(=O)(=O)O)c3cc(S(=O)(=O)O)cc(S(=O)(=O)O)c23)cc1NC(=O)c1cccc(NC(=O)Nc2cccc(C(=O)Nc3cc(C(=O)Nc4ccc(S(=O)(=O)O)c5cc(S(=O)(=O)O)cc(S(=O)(=O)O)c45)ccc3C)c2)c1 [suramin]	sulfotransferase inhibitor potency [4]: low/sub-micromolar
